Assay results reported in US20260034135A1, “USE OF N6-BENZYLAMINOPURINE AS AN APPETITE SUPPRESSANT” (THE GOVERNING COUNCIL OF THE UNIVERSITY OF TORONTO, priority 2022, published 2026).

What was measured:
[1] = Intraperitoneal glucose tolerance test (GTT); assay type: in vivo, CD-1 mice; details: male CD-1, HFD, cohort BSF
Method: […] The mice were then briefly fasted to determine the response to insulin or glucose. For the intraperitoneal glucose tolerance test, male mice were transferred to new clean cages and fasted for 6 hours prior to GTT. After 5 hours of fasting, the mice were weighed to determine their proper glucose dosage. The appropriate amount of 20% glucose solution was aliquoted for each mouse (2 g/kg). After 6 hours of fasting, the mice had their blood glucose measured via tail vein using a glucometer. This was recorded as the blood glucose at 0-minute timepoint. The mice were then intraperitoneal injected with their aliquoted glucose solution and returned to their cage. Blood glucose was measured via the tail vein 15, 30, 60, 90, and 120 minutes after glucose injection. Upon completion of GTT, the mice were returned to their cages with food and water and were closely monitored to ensure proper recovery.

[2] = system: primary hypothalamic neurons; test: Feeding neuropeptide expression in primary hypothalamic culture (qRT-PCR); assay type: cell-based, CD-1 mice; details: 100 μM BAP, 16 hr, male- and female-derived cultures (both sexes)
Method: For cell culture experiments, total RNA was isolated using PureLink RNA isolation kit (Thermofisher Scientific, Burlington, ON, Canada) according to the manufacturer's instruction with on column DNase step (PureLink DNAse kit) or DNase I treatment to remove genomic DNA. For mouse experiments, total RNA was isolated using mirVana PARIS RNA and native protein isolation kit (Thermofisher Scientific). RNA quality and quantity were measured using Nanodrop 2000 and 500-1000 ng of complimentary DNA (cDNA) was synthesized with High Capacity cDNA Reverse Transcription kit (Applied biosystems, Thermofisher Scientific). Quantitative reverse transcription polymerase chain reaction (RT-qPCR) was performed with 12.5 ng of cDNA amplified with Platinum SYBR green qPCR SuperMix-UDG with ROX on an Applied Biosystems Prism 7900HT or PowerTrack Green Master Mix on an Applied Biosystems QuantStudio 5 and gene specific primers as per manufacturer's instructions (Table 1). Data was analyzed using […] and normalized to reference gene, either 60S ribosomal protein L7 (Rpl7) or Histone 3a (His).
Because the BAP was being fed to the mice, it is also important to determine what are the direct effects of BAP on native hypothalamic neurons, since the results may be due to an indirect effect from the periphery. Hypothalamus were extracted from male and female CD-1 mice fed a normal chow diet, and primary hypothalamic neurons were cultured from individual mice. The neurons were treated with 100 µM of BAP for 16 hr to assess the effect of BAP on feeding-related neuropeptide expression.

[3] = Intraperitoneal insulin tolerance test (ITT); assay type: in vivo, CD-1 mice
Method: All protocols using mice were approved by the University Animal Care Committee of the University of Toronto and were performed in accordance with the Canadian Council on Animal Care. Animal experiments were performed in three separate animal facilities: Medical Sciences Building (MSB), Centre for Cellular and Biomolecular Research (CCBR) and the Biological Sciences Facility (BSF) due to ongoing construction and housing changes. Facilities and dates are indicated in each experimental cohort. N6-benzylaminopurine (BAP; also called N6-benzyladenine) was obtained from Sigma (B3408, cell culture grade in powder form; CAS number 1214-39-7). Male and female CD-1 mice aged 6-7 weeks were acquired from Charles Rivers and acclimated on a chow diet for one week prior to experimentation. Mice were then weight-matched and placed on either a 60% high fat diet (HFD) or sucrose-matched control diet for 4 weeks (from Research Diets: 60% HFD D12492 and the sucrose-matched control diet […]). After 3 weeks on the diet, mice were acclimated for one week to the drinking apparatus, a 50 mL canonical tube with a drinking tube. After 4 weeks on the diet, the mice were again weight-matched and randomly assigned to either the control or BAP group. […] The average dosages achieved using this method are as follows: male HFD (200 mg/kg/day), male control (157 mg/kg/day), female HFD (189 mg/kg/day), and female control (129.9 mg/kg/day). The mice were exposed continuously to the solutions for a total of 33 days. One week prior to the end of the experiment (day 28), the mice were fasted for 4 hr and underwent intraperitoneal insulin tolerance testing (ITT). After 33 days, the mice were sacrificed, and their tissues were collected. RNA was isolated from the collected hypothalamic and used to quantify gene expression via qRT-PCR. Male mice were placed on a 60% HFD for 8 weeks prior to the ITT and GTT analyses. At 4 weeks, treatment with BAP or vehicle was introduced on a daily basis in the honey emulsion as described above. The mice were then briefly fasted to determine the response to insulin or glucose. For the intraperitoneal insulin tolerance test (ITT), mice were transferred to clean cages without food and fasted for 4 hours. The mice were weighed after 3 hours of fasting and these weights were used to determine optimal insulin dosage (1 IU/kg). The appropriate amount of insulin was aliquoted. After 4 hours of fasting, blood glucose was measured via tail vein using a standard glucometer. This value was recorded as the 0-minute timepoint. The mice were intraperitoneal injected with their aliquoted amount of insulin and returned to their cage. Blood glucose was measured via tail vein 15, 30, and 60 minutes after insulin injection. Mice were provided with 20% glucose solution and removed from ITT if hypoglycemia was observed. Upon completion of ITT, mice were returned to cages with food and water and monitored for adverse effects.

[4] = daily oral BAP emulsion, 27 days

c1ccc(CNc2ncnc3nc[nH]c23)cc1 [BAP, N6-benzylaminopurine]
glucose uptake in a GTT ([1]; BAP emulsion 14 days): no change in glucose uptake | fasting blood glucose vs HFD without BAP (GTT) [1, 4]: significantly lower | glucose response in GTT [1, 4]: improved glucose response | Agrp expression [2]: no effects | Npy expression [2]: no effects | Pomc expression [2]: significantly increase | fasting blood glucose with BAP (ITT) ([3]; female CD-1, 60% HFD, BAP emulsion, one week prior to sacrifice, 4 hr fast (data not shown)): no significant differences | fasting blood glucose with BAP ([3]; female CD-1, BAP in drinking water, ITT one week prior to sacrifice, 4 hr fast): no significant differences | insulin sensitivity (ip insulin tolerance test) ([3]; female CD-1, HFD, BAP in drinking water, after 28 days of exposure): do not exhibit enhanced insulin sensitivity | fasting blood glucose vs HFD without BAP ([3]; male CD-1, 60% HFD, BAP in drinking water, ITT at day 28, 4 hr fast): significantly lower fasting blood glucose levels | insulin sensitivity (blood glucose after ip insulin tolerance test) ([3]; male CD-1, 60% HFD, after 28 days of daily oral BAP exposure): improved glucose tolerance
